ChEMBL document CHEMBL2364335, “Structure-activity relationship data for chemical series of achiral agonists of the ghrelin (growth hormone secretagogue) receptor (Supplementary Bioactivity Data for publication CHEMBL1140573)”

target: Growth hormone secretagogue receptor type 1 (Homo sapiens, UniProt Q92847); assay: SUPPLEMENTARY: Agonist activity at GSHR by FLIPR assay. Same assay as CHEMBL941945; type: functional
Sequence (Q92847 whole entry): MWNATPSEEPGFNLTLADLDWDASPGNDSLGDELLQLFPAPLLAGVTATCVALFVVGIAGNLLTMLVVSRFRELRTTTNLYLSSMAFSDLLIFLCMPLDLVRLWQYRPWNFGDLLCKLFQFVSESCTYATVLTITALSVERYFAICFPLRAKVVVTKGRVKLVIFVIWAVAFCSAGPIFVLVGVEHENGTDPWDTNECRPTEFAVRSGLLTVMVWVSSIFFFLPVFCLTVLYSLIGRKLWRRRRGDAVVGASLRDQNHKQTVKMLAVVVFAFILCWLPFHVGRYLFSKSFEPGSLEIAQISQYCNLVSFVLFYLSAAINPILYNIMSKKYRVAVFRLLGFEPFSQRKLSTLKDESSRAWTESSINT

| Compound | EC50 |
| --- | --- |
| COc1ccc(N2C[C@@H](C)N(C)[C@@H](C)C2)cc1NS(=O)(=O)c1ccc(-c2cccs2)cc1 | 0.0126 µM |
| C[C@@H]1CN(c2ccc(F)c(NS(=O)(=O)c3ccc(-c4ccccc4)cc3)c2)C[C@H](C)N1 | 0.0316 µM |
| C[C@@H]1CN(c2cccc(NS(=O)(=O)c3ccc(-n4cccn4)cc3)c2)C[C@H](C)N1 | 0.0251 µM |
| C[C@@H]1CN(c2ccc(F)c(NS(=O)(=O)c3ccc(-c4cccs4)cc3Cl)c2)C[C@H](C)N1 | 0.00794 µM |
| COc1ccc(NS(=O)(=O)c2ccc(-c3cnco3)s2)cc1N1C[C@@H](C)N[C@@H](C)C1 | 0.0398 µM |
| COc1ccc(NS(=O)(=O)c2ccc(-c3ccoc3)cc2)cc1N1C[C@@H](C)N[C@@H](C)C1 | 0.0126 µM |
| COc1ccc(NS(=O)(=O)c2ccc3ccccc3c2)cc1N1C[C@@H](C)N[C@@H](C)C1 | 0.0158 µM |
| C[C@@H]1CN(c2cccc(NS(=O)(=O)c3cc4ccccc4s3)c2)C[C@H](C)N1 | 0.0316 µM |
| COc1ccc(NS(=O)(=O)c2sc3ccc(Cl)cc3c2C)cc1N1C[C@@H](C)N[C@@H](C)C1 | 0.0316 µM |
| COc1ccc(NS(=O)(=O)/C=C/c2ccccc2)cc1N1C[C@@H](C)N[C@@H](C)C1 | 0.0158 µM |
| Cc1cc(-c2cccs2)ccc1S(=O)(=O)Nc1cc(N2C[C@@H](C)N[C@@H](C)C2)ccc1F | 0.02 µM |
| COc1ccc(NS(=O)(=O)c2ccc(-c3cccs3)s2)cc1N1C[C@@H](C)N[C@@H](C)C1 | 0.002 µM |
| COc1ccc(N2CCN[C@@H](C)C2)cc1NS(=O)(=O)c1ccc(-c2cccs2)cc1 | 0.158 µM |
| COc1ccc(NS(=O)(=O)c2ccc(-c3c(C)cccc3C)s2)cc1N1C[C@@H](C)N[C@@H](C)C1 | 0.0251 µM |
| C[C@@H]1CN(c2cccc(NS(=O)(=O)c3cccc4ccccc34)c2)C[C@H](C)N1 | 0.01 µM |
| COc1ccc(NS(=O)(=O)c2ccc(N3CCCC3=O)cc2)cc1N1C[C@@H](C)N[C@@H](C)C1 | 0.0794 µM |
| COc1ccc(NS(=O)(=O)c2ccc(-c3ccccc3)s2)cc1N1C[C@@H](C)N[C@@H](C)C1 | 0.001 µM |
| COc1ccc(NS(=O)(=O)c2ccc(Br)c(C)c2)cc1N1C[C@@H](C)N[C@@H](C)C1 | 0.0398 µM |
| C[C@@H]1CN(c2ccc(F)c(NS(=O)(=O)c3ccc(-c4ccoc4)cc3Cl)c2)C[C@H](C)N1 | 0.02 µM |
| Cc1ccc(-c2ccc(S(=O)(=O)Nc3cccc(N4C[C@@H](C)N[C@@H](C)C4)n3)cc2F)o1 | 0.001 µM |
| Cc1cc(-c2ccoc2)ccc1S(=O)(=O)Nc1cc(N2C[C@@H](C)N[C@@H](C)C2)ccc1F | 0.0316 µM |
| COc1ccc(NS(=O)(=O)c2ccc(-c3cccc(C)n3)s2)cc1N1C[C@@H](C)N[C@@H](C)C1 | 0.000631 µM |
| COc1ccc(NS(=O)(=O)c2ccc(-c3ccsc3)cc2)cc1N1C[C@@H](C)N[C@@H](C)C1 | 0.00251 µM |
| COc1ccc(NS(=O)(=O)c2ccc(-c3ccccc3C)cc2)cc1N1C[C@@H](C)N[C@@H](C)C1 | 0.1 µM |
| COc1ccc(NS(=O)(=O)c2ccc(-c3ccsc3)s2)cc1N1C[C@@H](C)N[C@@H](C)C1 | 0.00158 µM |
| COc1ccc(NS(=O)(=O)c2ccc(-c3cc(C)cs3)s2)cc1N1C[C@@H](C)N[C@@H](C)C1 | 0.000794 µM |
| COc1ccc(NS(=O)(=O)c2cccc3cccnc23)cc1N1C[C@@H](C)N[C@@H](C)C1 | 0.398 µM |

The next lines start with the values.

| EC50 | Compound |
| --- | --- |
| 0.01 µM | COc1ccc(N2C[C@@H](C)N[C@@H](C)C2)cc1NS(=O)(=O)c1ccc(-c2cccc(C)n2)cc1 |
| 0.1 µM | Cc1ccc(N2C[C@@H](C)N[C@@H](C)C2)cc1NS(=O)(=O)c1ccc(Br)cc1 |
| 0.1 µM | COc1ccc(N2C[C@@H](C)N[C@@H](C)C2)cc1NS(=O)(=O)c1ccc(-c2cccnc2)cc1 |
| 0.00794 µM | COc1ccc(N2C[C@@H](C)N[C@@H](C)C2)cc1NS(=O)(=O)c1ccc(-c2ccc(C)o2)nc1 |
| 0.00794 µM | COc1ccc(N2C[C@@H](C)N[C@@H](C)C2)cc1NS(=O)(=O)c1ccc(-c2ccoc2)cc1 |
| 0.00251 µM | COc1ccc(N2C[C@@H](C)N[C@@H](C)C2)cc1NS(=O)(=O)c1ccc(-c2csc(C)c2)cc1F |
| 0.0501 µM | COc1ccc(N2C[C@@H](C)N[C@@H](C)C2)cc1NS(=O)(=O)c1ccc(-c2cnco2)cc1 |
| 0.0398 µM | COc1ccc(N2C[C@@H](C)N[C@@H](C)C2)cc1NS(=O)(=O)c1ccc(-c2csc(C)n2)s1 |
| 0.01 µM | Cc1ccc(-c2ccc(S(=O)(=O)Nc3cc(N4C[C@@H](C)N[C@@H](C)C4)c[nH]c3=O)cc2F)o1 |
| 0.02 µM | COc1cc(F)c(N2C[C@@H](C)N[C@@H](C)C2)cc1NS(=O)(=O)c1ccc(-c2ccccn2)s1 |
| 0.002 µM | COc1ccc(N2C[C@@H](C)N[C@@H](C)C2)cc1NS(=O)(=O)c1ccc(-c2cc(C)cs2)s1 |
| 0.0631 µM | COc1ncc(N2C[C@@H](C)N[C@@H](C)C2)cc1NS(=O)(=O)c1ccc(-c2ccc(C)o2)c(F)c1 |
| 0.158 µM | COc1ccc(N2C[C@@H](C)N[C@@H](C)C2)cc1NS(=O)(=O)c1cccc(Br)c1 |
| 0.01 µM | COc1ccc(N2C[C@@H](C)N[C@@H](C)C2)cc1NS(=O)(=O)c1ccc(-c2cc(C)cs2)nc1 |
| 0.0316 µM | COc1ccc(N2C[C@@H](C)N[C@@H](C)C2)cc1NS(=O)(=O)c1ccc2c(c1)CCC(C)(C)O2 |
| 0.0158 µM | C[C@@H]1CN(c2ccc(F)c(NS(=O)(=O)c3ccc(-c4ccoc4)c(F)c3)c2)C[C@H](C)N1 |
| 0.00398 µM | COc1ccc(N2C[C@@H](C)N[C@@H](C)C2)cc1NS(=O)(=O)c1ccc(-c2ccc(C)s2)c(F)c1 |
| 0.01 µM | C[C@@H]1CN(c2ccc(Cl)c(NS(=O)(=O)c3ccc(-c4ccccc4F)s3)c2)C[C@H](C)N1 |

| EC50 | Compound |
| --- | --- |
| 0.002 µM | COc1ccc(N2C[C@@H](C)N[C@@H](C)C2)cc1NS(=O)(=O)c1ccc(-c2csc(C)c2)c(F)c1 |
| 0.0316 µM | COc1ccc(N2C[C@@H](C)N[C@@H](C)C2)cc1NS(=O)(=O)c1ccc(-c2cccc(F)c2)s1 |
| 0.0794 µM | COc1ccc(N2C[C@@H](C)N[C@@H](C)C2)cc1NS(=O)(=O)c1ccc(-c2cccc(C)n2)c(F)c1 |
| 0.0126 µM | COc1ccc(N2C[C@@H](C)N[C@@H](C)C2)cc1NS(=O)(=O)c1ccc(-c2nccs2)cc1 |
| 0.0158 µM | COc1ccc(N2C[C@@H](C)N[C@@H](C)C2)cc1NS(=O)(=O)c1ccc(-c2ccco2)nc1 |
| 0.02 µM | Cc1ccc(-c2ccc(S(=O)(=O)Nc3cc(N4C[C@@H](C)N[C@@H](C)C4)ccn3)cc2F)o1 |
| 0.0158 µM | CC(C)Oc1ccc(N2C[C@@H](C)N[C@@H](C)C2)cc1NS(=O)(=O)c1ccc(-c2cccs2)cc1 |
| 0.0251 µM | COc1ccc(N2C[C@@H](C)N[C@@H](C)C2)cc1NS(=O)(=O)c1cc2cc(Cl)ccc2s1 |
| 0.0126 µM | COc1ccc(N2C[C@@H](C)N[C@@H](C)C2)cc1NS(=O)(=O)c1ccc(-c2ncccn2)cc1 |
| 0.00794 µM | COc1cc(F)c(N2C[C@@H](C)N[C@@H](C)C2)cc1NS(=O)(=O)c1ccc(-c2cccs2)cc1 |
| 0.0251 µM | COc1ccc(N2C[C@@H](C)N[C@@H](C)C2)cc1NS(=O)(=O)c1ccc(-c2ccc(C)s2)s1 |
| 0.0501 µM | COc1ccc(N2C[C@@H](C)N[C@@H](C)C2)cc1NS(=O)(=O)c1cccc2cccnc12 |
| 0.0794 µM | COc1ccc(N2C[C@@H](C)N[C@@H](C)C2)cc1NS(=O)(=O)c1ccc2c(c1)OCCN2C |
| 0.0631 µM | Cc1cc(S(=O)(=O)Nc2cc(N3C[C@@H](C)N[C@@H](C)C3)ccc2F)ccc1Br |
| 0.02 µM | COc1ccc(N2C[C@@H](C)N[C@@H](C)C2)cc1NS(=O)(=O)c1ccc(-c2ccccc2F)cc1 |
| 0.00631 µM | C[C@@H]1CN(c2ccc(O)c(NS(=O)(=O)c3ccc(-c4ccccc4F)s3)c2)C[C@H](C)N1 |
| 0.0316 µM | COc1ccc(N2C[C@@H](C)N[C@@H](C)C2)cc1NS(=O)(=O)c1sc2ccc(F)cc2c1C |
| 0.01 µM | COc1ccc(N2C[C@@H](C)N[C@@H](C)C2)cc1NS(=O)(=O)c1ccc(-c2cccc(C)n2)s1 |
